As a reminder, the IC50 is the concentration that gives 50% inhibition. As usually defined, the EC50 is the midpoint of the concentration-response curve.

The target in experiment [1] is human RIPK2 recombinant kinase domain (Homo sapiens, UniProt O43353, R171C). Put plainly: Fluorescence-based thermal shift assay. The settings on record: for ΔTm at 10 µM: read-out: thermal shift (ΔTm); for thermal shift (ΔTm): RIPK2 2 μM, inhibitor 10 μM.
The target in experiment [2] is RIPK2 (Homo sapiens, UniProt O43353). The experiment is described as follows: ADPGlo in vitro kinase assay. It is filed as biochemical. The settings on record: Figure S5A. The procedure: (§1) For ADPGlo (Promega) assays, 1 ng of Abl or 10 ng of RIPK2 was diluted in reaction buffer (40 mM Tris-HCl [pH 7.5], 20 mM MgCl2, 0.5 mM DTT, and 0.01% BSA) supplemented with 50 μM ATP and a 10-point dose range of inhibitors. Detailed information is provided in the Supplemental Experimental Procedures.
Chain of RIPK2 (Homo sapiens, UniProt O43353) (O43353 18-294 limits assumed): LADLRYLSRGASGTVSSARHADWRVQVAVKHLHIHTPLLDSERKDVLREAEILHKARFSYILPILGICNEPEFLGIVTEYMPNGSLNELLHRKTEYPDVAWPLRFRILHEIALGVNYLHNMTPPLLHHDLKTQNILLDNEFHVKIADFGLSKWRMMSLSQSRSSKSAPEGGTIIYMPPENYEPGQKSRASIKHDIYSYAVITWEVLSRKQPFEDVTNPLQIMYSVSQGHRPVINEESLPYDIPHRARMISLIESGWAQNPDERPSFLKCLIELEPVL
(§2) 40C centrifuge at 14,000 rpm for 15 min to collect lysates. Protein concentrations were […]
(§3) Equal amounts of proteins were separated using 8-10% SDS-PAGE, followed by overnight incubations with antibodies according to the manuf acturer’s recommendations.
(§4) AD P G l o in vitro kinase assays
(§5) For ADPGlo (Promega) assays, 1 ng Abl or 10 ng of RIPK2 was diluted in reaction buff er (40 mM Tris-HCl pH 7.5, 20 mM MgCl2, 0.5 m M DTT, 0.01% BSA) supplemented with 50 µM ATP and 10-point dose range of inhibitors. Reactions were performed at room temperature for 1 hour. Reactions were performed in 5 µL total volume (5% final concentration of DMSO) and stopped by addition of 5 µL of ADPGlo reagent for 40 min at room temperature. Luminescent signal was generated by addition of 10 µL of kinase detection reagent for 30 minutes at room temperature and determined using Victor3V platereader (Perkin Elmer). Specific signal was calculated by subtracting values in the wells without protein and inhibitor from the values in the test wells. Inhibition, % = ((specif ic signal (DMSO control) - specif ic signal (inhibitor))/ (specif ic signal (DMSO control))) x 100%. Non-linear regression to determine IC50 values was perf ormed using Prism software (GraphPad). qPCR analysis in RAW 264.7 cells
(§6) RAW cells were seeded at 2X105 cells/well in 12 well plates. Af ter 24 hours, cells were treated with inhibitors and stimulated with 10 µg/mL MDP f or 24 hours. Total RNAs were isolated using […]
(In general: ADP-Glo first removes unused ATP, then detects ADP through luciferase.)

For another experiment, the target named is Abl (Homo sapiens, UniProt P00519). The experiment is described as follows: ADPGlo in vitro kinase assay. The experiment is classed as biochemical. The settings on record: Figure S5A. The procedure: as §1, §2, §3, §4, §5, §6
Chain of Abl (P00519 whole entry, species assumed): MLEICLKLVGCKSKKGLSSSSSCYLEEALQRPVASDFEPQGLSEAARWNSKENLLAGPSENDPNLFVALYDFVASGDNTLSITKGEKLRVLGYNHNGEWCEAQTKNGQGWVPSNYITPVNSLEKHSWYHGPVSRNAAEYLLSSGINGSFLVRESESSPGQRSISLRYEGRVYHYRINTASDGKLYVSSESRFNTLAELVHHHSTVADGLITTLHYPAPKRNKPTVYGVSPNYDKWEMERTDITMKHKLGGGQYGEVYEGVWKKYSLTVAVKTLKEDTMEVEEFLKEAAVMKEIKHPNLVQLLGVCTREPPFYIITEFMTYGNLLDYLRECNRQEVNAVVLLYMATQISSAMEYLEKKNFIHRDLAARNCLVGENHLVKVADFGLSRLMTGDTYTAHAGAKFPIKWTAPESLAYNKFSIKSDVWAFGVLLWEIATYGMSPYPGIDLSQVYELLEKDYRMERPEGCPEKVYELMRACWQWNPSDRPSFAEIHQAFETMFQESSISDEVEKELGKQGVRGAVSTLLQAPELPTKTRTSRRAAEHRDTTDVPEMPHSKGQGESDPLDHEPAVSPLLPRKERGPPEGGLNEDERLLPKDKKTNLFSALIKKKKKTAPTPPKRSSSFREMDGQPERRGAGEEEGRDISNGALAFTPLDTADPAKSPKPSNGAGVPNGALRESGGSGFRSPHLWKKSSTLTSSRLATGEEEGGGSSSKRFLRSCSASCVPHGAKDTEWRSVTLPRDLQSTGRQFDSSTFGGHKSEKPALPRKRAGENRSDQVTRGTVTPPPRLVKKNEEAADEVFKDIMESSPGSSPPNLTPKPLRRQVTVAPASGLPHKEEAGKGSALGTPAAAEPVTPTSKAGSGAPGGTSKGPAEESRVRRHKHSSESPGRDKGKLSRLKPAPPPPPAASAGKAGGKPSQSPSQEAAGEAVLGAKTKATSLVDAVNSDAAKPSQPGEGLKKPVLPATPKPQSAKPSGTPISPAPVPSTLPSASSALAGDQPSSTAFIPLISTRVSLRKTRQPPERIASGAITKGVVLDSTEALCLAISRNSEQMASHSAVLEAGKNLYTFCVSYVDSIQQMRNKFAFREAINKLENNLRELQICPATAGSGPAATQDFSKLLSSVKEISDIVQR
Experiment [3] deals with NF-κB activation in HEKBlue cells expressing NOD2. Put plainly: HEKBlue NF-κB-SEAP reporter activation assay, L18-MDP stimulation. The settings on record: for inhibition of NOD2 (MDP) response in HEKBlue cells: Figure S5B; for EC50: Homo sapiens, HEK-Blue, 8 h, read-out: NFκB activity EC50.
In experiment [4] the test system is RIPK2. The note with it: ref Vogt et al., 2011; cited from earlier work.
Experiment [5] concerns RIPK2 ubiquitination in THP-1 cells. Put plainly: TUBE purification of ubiquitin conjugates, L18-MDP-stimulated THP-1 cells. The settings on record: 100 nM pre-treatment, 200 ng/ml L18-MDP.
For experiment [6], the system named is LPS pathway in THP-1 cells. The experiment is described as follows: Flow cytometry of TNF production in THP-1 cells, LPS. The experiment is classed as cell-based, human. The note with it: 10 μM. The method, then: Figure S7, Related to Figure 7. Inhibition of NOD2 signaling in the human monocytic cell
line THP-1. Representative FACS blots (A) and quantif ication of TNF production (B) in THP-1
cells stimulated with L18-MDP or LPS. In indicated conditions cells were preincubated with
k inase inhibitors for 1 hour before activation of NOD2 and TLR4 receptor for 2.5 hours.
(1 picture or pasted object on this page, not shown here)

Experiment [7] has as its system phospho-Ser176-RIPK2 (p-RIPK2) in NOD2-expressing HEK293 cells. Put plainly: Western blot of phospho-Ser176-RIPK2 in HEKBlue cells after L18-MDP.
Experiment [8] concerns NOD2-dependent TNF production in primary human monocytes. The experiment is described as follows: Flow cytometry of intracellular TNF in primary human monocytes, L18-MDP. The experiment is classed as cell-based. The note with it: 200 ng/ml L18-MDP. The procedure:
Experimental conditions are measured in 4–5 healthy donors. […] Gray background indicates range without inhibitors. See also Figure S7.

Like-named read-outs stand apart in the source and are kept apart here.

Chain of human RIPK2 recombinant kinase domain (O43353 8-317 R171C): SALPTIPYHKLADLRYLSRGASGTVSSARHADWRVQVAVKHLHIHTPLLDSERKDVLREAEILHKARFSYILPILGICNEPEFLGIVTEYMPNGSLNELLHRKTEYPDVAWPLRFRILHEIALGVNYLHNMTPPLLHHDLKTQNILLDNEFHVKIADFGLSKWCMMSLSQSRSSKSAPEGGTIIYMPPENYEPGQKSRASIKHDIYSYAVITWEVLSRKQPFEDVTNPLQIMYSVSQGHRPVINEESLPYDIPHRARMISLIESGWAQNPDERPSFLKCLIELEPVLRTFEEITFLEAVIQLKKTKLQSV

For `CN1CCC(Nc2ncc3ncnc(Nc4ccc(F)c(Cl)c4)c3n2)CC1` [BIBX1382], the ΔTm at 10 µM in experiment [1] worked out at 8.7 °C.

As to `CN1CCN(Cc2ccc(NC(=O)c3ccc(C(C)(C)C)c(C#Cc4cnc5cccnn45)c3)cc2C(F)(F)F)CC1` [CS6], at RIPK2 [2], the “inhibition of RIPK2 in vitro” value was “loss of inhibition”. For the same molecule, the “inhibition of Abl kinase activity” value against Abl was “loss of inhibition”. Besides, the “inhibition of NOD2 (MDP) response in HEKBlue cells” value in experiment [3] is given as “did not inhibit”.

Take `Cc1nc(Nc2ncc(C(=O)Nc3c(C)cccc3Cl)s2)cc(N2CCN(CCO)CC2)n1` [Dasatinib]: the ΔTm at 10 µM in experiment [1] was found to be 9.5 °C.

As for `c1cc(-c2cnn3cc(-c4ccc(OCCN5CCCCC5)cc4)cnc23)ccn1` [Dorsomorphin], the ΔTm at 10 µM in experiment [1] came out at 9.6 °C.

Turning to `COC(=O)[C@@]1(O)C[C@H]2O[C@]1(C)n1c3ccccc3c3c4c(c5c6ccccc6n2c5c31)C(=O)NC4` [K252a], the “thermal shift (ΔTm)” value in experiment [1] was determined as 10.0 °C.

With `c1ccc2c(-c3cnn4cc(-c5ccc(N6CCNCC6)cc5)cnc34)ccnc2c1` [LDN-193189], the “thermal shift (ΔTm)” value in [1] was determined as 12.1 °C. The half-maximal inhibitory concentration (IC50) in the experiment with RIPK2 [4] was 25 nM.

In the case of `CN[C@@H]1C[C@H]2O[C@@](C)([C@@H]1OC)n1c3ccccc3c3c4c(c5c6ccccc6n2c5c31)C(=O)NC4` [Staurosporine], the ΔTm at 10 µM in experiment [1] is 9.1 °C. For the molecule `Cc1cccc(-c2nn(C(=S)Nc3ccccc3)cc2-c2ccnc3ccccc23)n1` [TGFβ inhibitor IV (A-83-01)], the “thermal shift (ΔTm)” value in experiment [1] came to 8.4 °C.

As to `COc1cc2ncnc(Nc3ccc(F)c(Cl)c3)c2cc1OCCCN1CCOCC1` [gefitinib], in experiment [5], the “L18-MDP-induced RIPK2 ubiquitination” value is on record as “less robust inhibitory effects”. In addition, the “LPS pathway TNF production” value in experiment [6] is reported as “also inhibited the LPS pathway”. Take `Cc1cn(-c2cc(NC(=O)c3ccc(C)c(Nc4nccc(-c5cccnc5)n4)c3)cc(C(F)(F)F)c2)cn1` [nilotinib]: the “inhibition of RIPK2 in vitro” value on RIPK2 [2] is listed as “did not inhibit”. For the same molecule, the “inhibition of NOD2 (MDP) response in HEKBlue cells” value in experiment [3] was “did not inhibit”. Take `CNC(=O)c1cc(Oc2ccc(NC(=O)Nc3ccc(Cl)c(C(F)(F)F)c3)c(F)c2)ccn1` [regorafenib]: the “L18-MDP-induced RIPK2 ubiquitination” value in [5] was “less robust inhibitory effects”. For the same molecule, in experiment [7] (1 μg/ml L18-MDP, 30 min), the “inhibition of L18-MDP-induced p-RIPK2” value is on record as “inhibited by low nanomolar concentrations”. Further, the EC50 in experiment [3] was determined as 3.8 nM. Besides, the “concentration completely abrogating NOD2-dependent TNF production” value in experiment [8] was 100 nM. Consider `CNC(=O)c1cc(Oc2ccc(NC(=O)Nc3ccc(Cl)c(C(F)(F)F)c3)cc2)ccn1` [sorafenib], for which the “inhibition of L18-MDP-induced p-RIPK2” value in [7] is recorded as “inhibited by low nanomolar concentrations”. Moreover, the EC50 in experiment [3] stood at 16.9 nM.
